{
  "source": "patent US6862890B2",
  "about": "“Process for production of nanoparticles and microparticles by spray freezing into liquid” (Board of Regents, University of Texas System, priority 2001, dated 2005)",
  "assay_type_in_all_cases": "physicochemical",
  "key": {"[1]": {"experiment": "BET specific surface area of powders"}, "[2]": {"experiment": "Dissolution of drug from powders in dissolution media (FeSSIF)", "conditions": "60 minutes", "description": "This media is used to simulate gastrointestinal conditions. FeSSIF is the dissolution media that the powders produced in the following examples are dispersed into to quantitate the amount of drug dissolved as a function of time."}, "[3]": {"experiment": "Particle size of powders (time-of-flight, AERO-[…])", "experimental": "(§1) An aliquot of 0.1 g bovine insulin was dissolved in 20 ml HCl (pH=2), the solution was then titrated by 0.1 N NaOH to pH 7.4. The feed solution was then atomized using an ISCO pump by spray freezing into liquid nitrogen. The nozzle used was polyetheretherketone tubing with a diameter of 63.5 μm. The flow rate was 14 ml/min at 4000 psi. The frozen particles were collected and dried in a tray lyophilizer.\nThe span index is used to described the polydispersity in a given particle size distribution and is defined as (D90-D10)/D50, where D10, D50, and D90 are the respective particle size at 10, 50, 90 percent cumulative percent undersize."}, "[4]": {"experiment": "Chemical stability of insulin: level of covalent insulin dimer", "conditions": "for percentage of covalent insulin dimer: stored at −4° C.", "experimental": "as §1, with “lyophilizer. The resulting particles were highly porous. […] The SFL process decreased the level of covalent insulin dimer (Table 2). The mean particle size diameter as determined by time-of-flight measurement was 5.06 microns. SEM photographs reveal that the particle is an aggregate composed of small domains of insulin.” for “lyophilizer.”\n(§2) The SFL insulin powder was prepared according to the procedure outlined in Example 1 with same formulation. The SFL insulin powder was stored at −4° C. The samples were taken out at 6, 12 and 24 weeks."}, "[5]": {"experiment": "Chemical stability of insulin: level of A-21 desamido insulin", "conditions": "stored at −4° C.", "experimental": "as §1, with “lyophilizer. The resulting particles were highly porous. […] The SFL process decreased the level of covalent insulin dimer (Table 2). The mean particle size diameter as determined by time-of-flight measurement was 5.06 microns. SEM photographs reveal that the particle is an aggregate composed of small domains of insulin.” for “lyophilizer.”\nas §2"}, "[6]": {"experiment": "Contact angle of powder compacts against purified water (wettability)", "conditions": "compacts of powders", "description": "The two solutions were mixed and allowed to equilibrate to generate a water-soluble inclusion complex between danazol and HPβCD. The solution was then processed by SFL and freeze-dried in a tray lyophilizer. The solution was atomized directly into liquid nitrogen through an insulated polyetheretherketone (PEEK) nozzle with a 63.5 μm orifice at 5000 psi constant pressure supplied by an ISCO syringe pump. The atomized frozen powder was then collected by sieve filtration and freeze-dried. […] Measurement of the contact angle of compacts of the various samples investigated allowed for the determination of the wettability of the powders. […] A lower contact angle coincided with enhanced wettability of the powder in aqueous dissolution media. […] The two solutions were mixed to form a one-phase cosolvent solution. The solution was then processed by SFL and freeze-dried and fluidized in an atmospheric freeze-drying (ATMFD) chamber. […] The atomized frozen powder was then collected by sieve filtration and freeze-dried using a cryogenic atmospheric (ATMFD) fluidized bed apparatus. […] The microparticles are porous and have a high surface area. […] Measurement of the contact angle of compacts of the various samples investigated allowed for the determination of the wettability of the powders. […] A lower contact angle coincided with a better wettability of the powder in aqueous dissolution media. […]"}},
  "data": [
    {"molecule": "C#C[C@]1(O)CC[C@H]2[C@@H]3CCC4=Cc5oncc5C[C@]4(C)[C@H]3CC[C@@]21C", "note": "[Danazol]", "values": [
      {"measurement": "BET surface area", "setting": "[1]", "value": 0.52, "unit": "m^2/g"},
      {"measurement": "amount of danazol dissolved", "setting": "[2]", "value": 21, "unit": "%"}
    ]},
    {"molecule": "NC(=O)N1c2ccccc2C=Cc2ccccc21", "note": "[CBZ, carbamazepine]", "values": [
      {"measurement": "Span Index (D90-D10)/D50", "setting": "[3]", "value": 2.94},
      {"measurement": "D10", "setting": "[3]; time-of-flight, 10 percent cumulative undersize", "value": 15.56, "unit": "μm"},
      {"measurement": "D50", "setting": "[3]; time-of-flight, 50 percent cumulative undersize", "value": 39.70, "unit": "μm"},
      {"measurement": "D90", "setting": "[3]; time-of-flight, 90 percent cumulative undersize", "value": 132.33, "unit": "μm"}
    ]},
    {"molecule": "bovine insulin [Bulk insulin]", "values": [
      {"measurement": "Mean Particle Size", "setting": "[3]; time-of-flight", "value": 14.24, "unit": "μm"},
      {"measurement": "percentage of covalent insulin dimer", "setting": "[4]; 12 weeks", "value": 1.18, "unit": "percentage"},
      {"measurement": "percentage of covalent insulin dimer", "setting": "[4]; 24 weeks", "value": 1.15, "unit": "percentage"},
      {"measurement": "Covalent Insulin Dimer (percent)", "setting": "[4]; Example 1, after SFL and lyophilization vs bulk", "value": 0.25, "unit": "%"},
      {"measurement": "percentage of covalent insulin dimer", "setting": "[4]; Initial", "value": 0.5, "unit": "percentage"},
      {"measurement": "percentage of A-21 desamido", "setting": "[5]; 12 weeks", "value": 2.61, "unit": "percentage"},
      {"measurement": "percentage of A-21 desamido", "setting": "[5]; 24 weeks", "value": 2.72, "unit": "percentage"},
      {"measurement": "percentage of A-21 desamido", "setting": "[5]; Initial", "value": 2.46, "unit": "percentage"}
    ]},
    {"molecule": "C#C[C@]1(O)CC[C@H]2[C@@H]3CCC4=Cc5oncc5C[C@]4(C)[C@H]3CC[C@@]21C", "note": "[SFL Danazol Alone, danazol]", "values": [
      {"measurement": "Average Contact Angle ± S.D. against purified water", "setting": "[6]", "value": "64.3 ± 1.1", "unit": "°"},
      {"measurement": "Average Contact Angle ± S.D. against purified water", "setting": "[6]; listed as danazol alone", "value": 64.3, "unit": "°"}
    ]}
  ]
}
